Laboratory results as given in paper PMC10447463, “Data-mining unveils structure–property–activity correlation of viral infectivity enhancing self-assembling peptides” (Nature Communications, 2023).
Where two headings read alike, the source gives them in different places.

Key:
[1] = Zeta-potential measurement; type: physicochemical; details: for Zeta-pot. / mV: zeta potential of peptide, Fig S15 source data
Outline: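 Readout: zeta potential (mV) derived by Smoluchowski from measured electrophoretic mobility. Preformed aggregates (1 mg/mL peptide, PBS pH 7.4, RT for 1 d) were diluted into dilute KCl electrolyte (1 mM) shortly before analysis.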

TZM-bl cells = type: cell-based; details: CellTiter-Glo, mean of n = 3 replicates; for viability 0.26 µM: peptide 0.26 µM; for viability 1.3 µM: peptide 1.3 µM; for viability 6.5 µM: peptide 6.5 µM
Outline: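 Viability of TZM-bl cells (10,000 seeded) after 3 days with serially diluted peptides, measured by CellTiter-Glo luminescence. Values normalized to 100% metabolic activity; triplicates.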

[2] = Turbidity, derived count rate of scattered light; type: physicochemical; details: for Log Count Rate: log of derived count rate; for Count Rate: turbidity
Outline: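 Samples: 1 mg/mL in PBS pH 7.4 (from DMSO), 1 d at RT, then diluted in 1 mM KCl immediately before measurement. Triplicates, two independent runs averaged.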

[3] = derived count rate of scattered light, mean, std deviation in separate column
[4] = derived count rate of scattered light
[5] = Fig S8 panels A, C, asymmetric log errors
[6] = Fig S8 panels B, D, derived count rate of scattered light
[7] = derived count rate from zeta measurement, mean

Row | Substance | Zeta category ( +1 = if > 4 mV;-1 = if < -4 mV; 0 = -4mV to 4 mV) [1] | Zeta category ( +1 = if > 4 mV;-1 = if < -4 mV; 0 = -4mV to 4 mV) ([1]; category from zeta potential) | Zeta Pot. / mV ([1]; mean, Std Zeta in next column) | Zeta Pot. / mV ([1]; mean, Std in separate column) | Zeta-pot. / mV [1] | viability 0.26 µM (TZM-bl cells) | viability 1.3 µM (TZM-bl cells) | viability 6.5 µM (TZM-bl cells) | Zeta Count Rate Category ([2]; category 1 or 0 from count rate, key not given) | Zeta Count Rate / kcps ([2]; derived count rate of scattered light, mean, std deviation in next column) | Zeta Count Rate / kcps [2, 3] | Zeta Pot. / mV [1] | Zeta Count Rate Category ([2]; category 1 / 0, no key given) | Zeta Count Rate / kcps [2, 4] | Log Count Rate [2, 5] | Log Count Rate ([2]; Fig S8 panels B, D) | Count Rate [2, 6] | Zeta category ( +1 = if > 4 mV;-1 = if < -4 mV; 0 = -4mV to 4 mV) ([1]; FigS26) | Zeta Count Rate / kcps [2, 7] | Zeta Count Rate Category ([2]; key not given)
1 | RGDKIKIQINMWQ [MG9a] | 1 (+1 = if > 4 mV) | 1 (+1 = if > 4 mV) | 6.59 mV | 6.59 mV | 6.59 mV | 104.4 | 105.9 | 88.59 | 1 | 1554 kcps | 1554 kcps | – | – | – | – | – | – | – | – | –
2 | KIKIKIKIWWWW [TM12] | 1 (+1 = if > 4 mV) | – | – | 15.2 mV | 15.2 mV | 125.9 | 106.4 | 86.48 | – | – | 12420.6 kcps | – | – | – | – | – | – | – | – | –
3 | RLRLTLC [CN13] | 1 (+1 = if > 4 mV) | – | – | – | 19.67 mV | 120.7 | 120.4 | 108.4 | – | – | – | 19.67 mV | 1 | 125.6 kcps | – | – | – | – | – | –
4 | HHHHKIKIQINMYYYY [TM16] | 1 (+1 = if > 4 mV) | – | – | – | 7.807 mV | 118.7 | 114.9 | 85.37 | – | – | – | 7.807 mV | 1 | 5659 kcps | 3.753 | 3.753 | 5658.77 | – | – | –
5 | HIHIQIC [CN12] | 0 (0 = -4mV to 4 mV) | – | – | – | -3.687 mV | 99.21 | 105 | 101.2 | – | – | – | -3.687 mV | 1 | 260.6 kcps | 2.416 | 2.416 | 260.57 | – | – | –
6 | RGDKIKIQINMC [psis29] | 1 (+1 = if > 4 mV) | – | – | 12.2 mV | 12.2 mV | 103.4 | 101.5 | 82.89 | – | – | 1404 kcps | – | – | – | – | – | – | 1 (+1 = if > 4 mV) | 1404 kcps | 1
7 | HHHHKAKAKAKAYYYY [TM10] | 1 (+1 = if > 4 mV) | – | – | – | 7.03 mV | 107.4 | 112.1 | 104.4 | – | – | – | 7.03 mV | 1 | 240.9 kcps | – | – | – | – | – | –
8 | KFKFQFFF [TG12] | 1 (+1 = if > 4 mV) | – | – | 13.27 mV | 13.27 mV | 108.2 | 109.4 | 97 | – | – | 3039 kcps | 13.27 mV | 1 | 3039 kcps | – | – | – | – | 3039 kcps | 1
9 | RGEKIKIQINM [CN18] | 1 (+1 = if > 4 mV) | – | – | – | 15.3 mV | 93.96 | 87.66 | 79.74 | – | – | – | 15.3 mV | 1 | 594.6 kcps | – | – | – | – | – | –
10 | RGECKFKFQF [CN16] | 1 (+1 = if > 4 mV) | – | – | – | 23.97 mV | 105.4 | 106.3 | 102.8 | – | – | – | 23.97 mV | 1 | 219.3 kcps | – | – | – | – | – | –
11 | KIKIKIKIWW [TM21] | 1 (+1 = if > 4 mV) | – | – | 15.4 mV | 15.4 mV | 95.22 | 94.23 | 80.72 | – | – | 9436 kcps | – | – | – | – | – | – | – | – | –
12 | RGDSGGGGGGKIKIQIC [TM114 / RC17] | – | – | – | – | 16.7 mV | 105.8 | 97.96 | 78.89 | – | – | – | – | – | – | 4.018 | 4.018 | 10416.2 | – | – | –
13 | CKIKIQIRGD [psis21] | – | – | – | – | 7.157 mV | 104.5 | 107.1 | 97.19 | – | – | – | – | – | – | – | – | – | – | – | –
14 | RGDKIKIQINM [MG8a / CN17] | 1 (+1 = if > 4 mV) | – | – | 16.43 mV | 16.43 mV | 107.7 | 105.2 | 86.63 | – | – | 57.2 kcps | 16.43 mV | 0 | 57.2 kcps | – | – | – | – | 57.2 kcps | 0
15 | CKIKIQIII [AR0 / F19] | 1 (+1 = if > 4 mV) | – | – | 16.2 mV | 16.2 mV | 109.6 | 100.4 | 87.63 | – | – | 4953 kcps | – | – | – | – | – | – | – | – | –
